Like-named read-outs stand apart in the source and are kept apart here.
Experiments:
[1] = design: method as in PMID 34097488; conditions: cited from earlier work
[2] = single dose 10 mg/kg, healthy Aotus monkeys; cited from earlier work
D6 (CQ sensitive) = tested on: D6 (CQ sensitive); design: method as in ref S2; conditions: [3H]-hypoxanthine assay; ref S2; read-out: Antimalarial activities IC50 D6; cited from earlier work
[3] = tested on: TM93-C1088 (atovaquone and CQ resistant); design: method as in ref S2; conditions: [3H]-hypoxanthine assay; ref S2; read-out: Antimalarial activities IC50 TM93-C1088; cited from earlier work
TM-C2B = tested on: TM-C2B; design: method as in ref S2; conditions: [3H]-hypoxanthine assay; ref S2; read-out: Antimalarial activities IC50 TM-C2B; cited from earlier work
[4] = tested on: asexual blood stages of Pf NF54 (drug sensitive); assay: SYBR Green I proliferation assay, asexual blood stages, Pf NF54; assay type: cell-based, Plasmodium falciparum
Experimental: (§1) Dose response curves are in Figures S1a–c and S2a–c in the Supplementary Material 1. Table 1 also includes the historical values for artemiside and artemisone obtained using the same assay.
(§2) All other assay conditions are as previously described. Compound working solutions were prepared from a 10 mM stock solution in 100% (vol/vol) dimethyl sulfoxide (DMSO, Sigma-Aldrich) in supplemented RPMI 1640 medium containing AlbuMAX II with a final DMSO concentration of 0.1% (vol/vol), previously determined to be nontoxic to blood stage asexual parasites and gametocytes. The dose-responses of the amino-artemisinins were assayed using a 2-fold serial drug dilution on in vitro 95% ring-stage parasites at 37 °C under 90% N2, 5% CO2, and 5% O2 atmospheric conditions, detecting SYBR green I fluorescence as the proliferative marker following a 96 h drug treatment (1% parasitemia and 1% hematocrit) using a GloMaxR-Multi+ Detection System (Promega). No drug washout steps were performed during drug incubation periods prior to the assays. Activity against the Pf drug-sensitive NF54 strain and the drug-resistant K1 (resistant to CQ, quinine, pyrimethamine, and cycloguanil) and W2 (resistant to CQ, quinine, pyrimethamine, and cycloguanil) strains was evaluated. Data analysis was performed using GraphPad Prism (version 6), intra-assay variability was monitored with Z-factors, and acceptable interassay reproducibility was determined from the percent coefficient of variation (CV).

[5] = tested on: asexual blood stages of Pf W2 (drug resistant); assay: SYBR Green I proliferation assay, asexual blood stages, Pf W2; assay type: cell-based, Plasmodium falciparum
Experimental: as §1, §2

[6] = tested on: early-stage (EG) Pf NF54 gametocytes; assay: Luciferase assay, early-stage gametocytes; assay type: cell-based, Plasmodium falciparum; conditions: early-stage gametocytes >95% stages II-III, 48 h incubation, ± SEM
Experimental: For screening artemisox and M1 against early- (EG) and late-stage (LG) gametocytes, the luciferase assay with transgenic NF54-pfs16-GFP-Luc and NF54-Mal8p1.16-GFP-Luc parasite lines was used. With this assay, stage-specificity of gametocytocidal action was established (Table 2). Dose-response curves are in Figures S1d,e and S2d in the Supplementary Material 1. […] As was observed previously for artemisone and artemiside, dose responses for artemisox and M1 could not be obtained at 48 h against late-stage gametocytes.
The same reference compounds with the exception of CQ were used for the early- and late-stage gametocyte assays. Gametocytocidal activity was determined using the transgenic NF54-pfs16-GFP-Luc and NF54-Mal8p1.16-GFP-Luc reporter lines. Compounds were initially screened for activity at a fixed drug concentration of 1 µM, with dose responses subsequently determined using 2-fold serial drug dilutions for 48 h against early-stage gametocytes (day 5 post-induction population, ≥95% stages II–III) and 10-fold serial drug dilutions for 48 h or 72 h against late-stage gametocytes (day 10 post-induction population, ≥90% late-stage [stages IV–V]) (2 to 3% gametocytemia, 2% hematocrit) at 37 °C under 90% N2, 5% CO2, and 5% O2 [6]. No drug washout steps were performed during the drug incubation periods prior to the assays. In all cases, an interference assay was run in parallel to eliminate the possibility of false positives arising through compound interference with the luciferase readout.

Structure (SMILES): C[C@H]1[C@H](N2CCSCC2)O[C@@H]2O[C@@]3(C)CC[C@H]4[C@H](C)CC[C@@H]1[C@@]24OO3 [Artemiside 5, Artemiside]
- F% (oral bioavailability) [1]: 1%

Structure (SMILES): C[C@H]1[C@H](N2CCS(=O)(=O)CC2)O[C@@H]2O[C@@]3(C)CC[C@H]4[C@H](C)CC[C@@H]1[C@@]24OO3 [Artemisone 7, Artemisone]
- ex vivo antimalarial activity observable up to (post dose) [2]: up to 7 h
- IC50 (D6 (CQ sensitive)): 1 ± 0.4 nM
- IC50 [3]: 0.7 ± 0.2 nM
- IC50 (TM-C2B): 1.1 ± 0.4 nM

Structure (SMILES): C[C@H]1[C@H](N2CC[S+]([O-])CC2)O[C@@H]2O[C@@]3(C)CC[C@H]4[C@H](C)CC[C@@H]1[C@@]24OO3 [Artemisox 6, Artemisox]
- IC50 ([4]; Plasmodium falciparum, NF54, 96 h, asexual blood stage Pf NF54, CQ sensitive, SYBR Green I, 96 h, ± SEM, read-out: IC50 NF54): 1.95 ± 0.25 nM
- IC50 ([4]; Plasmodium falciparum, NF54, summary over NF54, K1 and W2 strains, read-out: IC50 against asexual Pf blood stage parasites): ~2 nM
- IC50 ([4]; summary over NF54, K1 and W2 strains, read-out: IC50 against asexual Pf blood stage parasites): 1.5 to 2.6 nM
- RI = IC50 W2/IC50 NF54 [5]: 0.7
- IC50 ([5]; Plasmodium falciparum, asexual blood stage Pf W2, multidrug resistant, SYBR Green I, 96 h, ± SEM): 1.5 ± 0.4 nM
- IC50 ([6]; Plasmodium falciparum, NF54, 48 h): 18.9 nM
- IC50 [6]: 18.9 ± 0.98 nM
